Results as given in patent US8686022B2, “7-(piperazine-1-ymethyl)-1H-indole-2-carboxylic acid (phenyl)-amide derivatives and allied compounds as p38 MAP kinase inhibitors for the treatment of respiratory diseases” (Boehringer Ingelheim International GmbH, priority 2008, dated 2014).
Values after ≈ are worked out from the molar mass of the structure shown.

What was measured:
p38 MAP-kinase = p38 MAP-kinase (Homo sapiens, UniProt Q16539); assay: p38 MAP-kinase enzymatic assay (phosphorylation of GST-tagged ATF2, chemoluminescence); format: biochemical; conditions: inhibitor concentration 1 μM; activated p38 MAP-kinase 1 nM; ATP 100 μM; read-out: p38 (% Inh @ 1 μM)
p38 MAP-kinase, sequence (Q16539 whole entry): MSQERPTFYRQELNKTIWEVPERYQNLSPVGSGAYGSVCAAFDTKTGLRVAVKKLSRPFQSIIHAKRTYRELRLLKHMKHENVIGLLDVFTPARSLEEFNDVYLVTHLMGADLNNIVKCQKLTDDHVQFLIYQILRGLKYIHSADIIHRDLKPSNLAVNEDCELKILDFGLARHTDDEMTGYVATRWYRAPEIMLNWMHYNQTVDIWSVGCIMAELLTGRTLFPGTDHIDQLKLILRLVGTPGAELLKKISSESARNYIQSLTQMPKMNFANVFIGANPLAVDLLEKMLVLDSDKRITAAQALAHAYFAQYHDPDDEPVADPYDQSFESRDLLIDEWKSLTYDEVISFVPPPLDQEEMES
In short: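 Activated p38 MAP-kinase (1 nM) preincubated 4 h at ambient temperature with 1 μM compound in HEPES pH 7, MgCl2, DTT, TWEEN20, then reacted 1 h with 10 nM GST-ATF2 and 100 μM ATP. Phospho-ATF2 detected by AlphaScreen-type bead luminescence; percent inhibition at 1 μM versus uninhibited and kinase-free controls.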

cytochrome P450 2C9 = cytochrome P450 2C9 (Homo sapiens, UniProt P11712); assay: Determining the cyp2C9 activity (O-demethylation of [O-methyl-14C]-naproxen); format: in vitro ADME; conditions: human recombinant cytochrome P450 2C9; 37° C.; <0.4 μM when inhibition >50% at lowest concentration; read-out: CYP 2C9 IC50
cytochrome P450 2C9, sequence (P11712 whole entry): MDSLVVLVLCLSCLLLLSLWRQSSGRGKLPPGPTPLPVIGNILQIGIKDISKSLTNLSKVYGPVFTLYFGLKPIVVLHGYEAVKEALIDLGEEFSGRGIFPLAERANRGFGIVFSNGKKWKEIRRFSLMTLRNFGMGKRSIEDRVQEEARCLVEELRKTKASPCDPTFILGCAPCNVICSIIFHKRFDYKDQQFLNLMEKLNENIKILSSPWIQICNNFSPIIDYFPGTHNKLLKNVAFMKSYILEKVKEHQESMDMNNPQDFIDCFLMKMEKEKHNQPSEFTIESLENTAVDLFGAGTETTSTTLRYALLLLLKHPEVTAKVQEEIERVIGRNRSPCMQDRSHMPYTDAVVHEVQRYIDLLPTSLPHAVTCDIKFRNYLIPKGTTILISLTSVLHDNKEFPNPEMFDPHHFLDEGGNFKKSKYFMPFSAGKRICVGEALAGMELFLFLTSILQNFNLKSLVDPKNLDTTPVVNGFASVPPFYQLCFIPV
In short: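 Recombinant CYP2C9 (40 pmol/ml) with 80 μM [O-methyl-14C]-naproxen in 0.1 M Tris, 5 mM MgCl2; test compound at 50, 10, 2 and 0.4 μM in duplicate. Started with 1 mM NADPH, stopped after 15 min with TCA; 14C-formaldehyde separated by solid-phase extraction and counted by scintillation. IC50 from least-squares fit.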

[1] = Determining the solubility (saturated solution in McIlvaine buffer pH 7.4, UV spectroscopy); format: physicochemical; conditions: pH 7.4, aqueous buffer, thermodynamic from solid, shaken 2 hours, 0.75 mg solid in 0.75 ml
In short: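 Excess solid (0.75 mg per 0.75 ml) shaken 2 h in McIlvaine buffer pH 7.4, then filtered through 0.45 μm PTFE membrane with first drops discarded. Dissolved amount measured by UV spectroscopy.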

inhibition at 1 µM (p38 MAP-kinase) [%] | IC50 (cytochrome P450 2C9) [nM] | solubility at 2 h [1] [µg/mL] | Compound
97.3 | 1670 | 280 (≈ 429 µM) | COc1c(NC(=O)c2cc3cccc(CN4CCCN(C(=O)[C@@H]5CCCN5C)CC4)c3n2C)cc(C(C)(C)C)cc1NS(C)(=O)=O [Example 8, 1-methyl-7-[4-((2S)-1-methyl-pyrrolidine-2-carbonyl)-[1,4]diazepan-1-ylmethyl]-1H-indole-2-carboxylic acid-(5-tert-butyl-3-methanesulphonylamino-2-methoxy-phenyl)-amide]
98.8 | 11000 | > 1000 | COc1c(CN2CCN(C)CC2)cc(C(C)(C)C)cc1NC(=O)c1cc2cccc(CN3CCN(C(=O)[C@@H]4CCCN4C)CC3)c2n1C [Example 9, (S)-1-methyl-7-[4-(1-methyl-pyrrolidine-2-carbonyl)-piperazin-1-ylmethyl]-1H-indole-2-carboxylic acid-[5-tert-butyl-2-methoxy-3-(4-methyl-piperazin-1-ylmethyl)-phenyl]-amide]
99.1 | 1320 | 420 (≈ 668 µM) | COc1c(NC(=O)c2cc3cccc(CN4CCN(C(=O)[C@@H]5CCCN5C)CC4)c3n2C)cc(C(C)(C)C)cc1C(=O)NC1CC1 [Example 10, (S)-1-methyl-7-[4-(1-methyl-pyrrolidine-2-carbonyl)-piperazin-1-ylmethyl]-1H-indole-2-carboxylic acid-(5-tert-butyl-3-cyclopropylcarbamoyl-2-methoxy-phenyl)-amide]
92 | 5900 | 450 (≈ 730 µM) | COc1c(NC(=O)c2cc3cccc(CN4CCN(C(=O)[C@@H]5CCCN5C)CC4)c3n2C)cc(C(C)(C)C)cc1C(=O)N(C)C [Example 11, (S)-1-methyl-7-[4-(1-methyl-pyrrolidine-2-carbonyl)-piperazin-1-ylmethyl]-1H-indole-2-carboxylic acid-(5-tert-butyl-3-dimethylcarbamoyl-2-methoxy-phenyl)-amide]
97.9 | 500 | 660 (≈ 1070 µM) | CCC(=O)Nc1cc(C(C)(C)C)cc(NC(=O)c2cc3cccc(CN4CCN(C(=O)[C@@H]5CCCN5C)CC4)c3n2C)c1OC [Example 12, (S)-1-methyl-7-[4-(1-methyl-pyrrolidine-2-carbonyl)-piperazin-1-ylmethyl]-1H-indole-2-carboxylic acid-(5-tert-butyl-2-methoxy-3-propionylamino-phenyl)-amide]
99.1 | 500 | 17 (≈ 25.5 µM) | CCCS(=O)(=O)Nc1cc(C(C)(C)C)cc(NC(=O)c2cc3cccc(CN4CCN(C(=O)[C@@H]5CCCN5C)CC4)c3n2C)c1OC [Example 13, (S)-1-methyl-7-[4-(1-methyl-pyrrolidine-2-carbonyl)-piperazin-1-ylmethyl]-1H-indole-2-carboxylic acid-[5-tert-butyl-2-methoxy-3-(propane-1-sulphonylamino)-phenyl]-amide]
98.8 | 1430 | 27 (≈ 38.5 µM) | COc1c(NC(=O)c2cc3cccc(CN4CCN(C(=O)[C@@H]5CCCN5C)CC4)c3n2C)cc(C(F)(F)C(F)(F)F)cc1NS(C)(=O)=O [Example 14, (S)-1-methyl-7-[4-(1-methyl-pyrrolidine-2-carbonyl)-piperazin-1-ylmethyl]-1H-indole-2-carboxylic acid-(3-methanesulphonylamino-2-methoxy-5-pentafluoroethyl-phenyl)-amide]
99.4 | 2540 | 230 (≈ 399 µM) | COc1c(CO)cc(C(C)(C)C)cc1NC(=O)c1cc2cccc(CN3CCN(C(=O)[C@@H]4CCCN4C)CC3)c2n1C [Example 15, (S)-1-methyl-7-[4-(1-methyl-pyrrolidine-2-carbonyl)-piperazin-1-ylmethyl]-1H-indole-2-carboxylic acid-(5-tert-butyl-3-hydroxymethyl-2-methoxy-phenyl)-amide]
98.8 | < 400 | < 1 | COc1c(NC(=O)c2cc3cccc(CN4CCN(C(=O)CC5CC5)CC4)c3n2C)cc(C(C)(C)C)cc1NS(C)(=O)=O [Va, reference compound]
99.1 | < 400 | < 1 | COc1c(NC(=O)c2cc3cccc(CN4CCN(C(=O)C5(C)CC5)CC4)c3n2C)cc(C(C)(C)C)cc1NS(C)(=O)=O [Vb, reference compound]
99.1 | < 400 | < 1 | COc1c(NC(=O)c2cc3cccc(CN4CCN(C(=O)C5CC5)CC4)c3n2C)cc(C(C)(C)C)cc1NS(C)(=O)=O [Vc, reference compound]
